Measurements published in ChEMBL document CHEMBL1687857, “Stereumins H-J, stereumane-type sesquiterpenes from the fungus Stereum sp” (J Nat Prod, 2011).
Calls of active or inactive are those of the source.

Assays:
Staphylococcus aureus = experiment: Antimicrobial activity against Staphylococcus aureus at 50 ug/ml by disk diffusion method; format: functional, organism-based
Escherichia coli = experiment: Antimicrobial activity against Escherichia coli at 50 ug/ml by disk diffusion method; format: functional, organism-based
A549 = experiment: Cytotoxicity against human A549 cells at 40 uM by MTT assay; format: functional, cell-based
Candida albicans = experiment: Antimicrobial activity against Candida albicans at 50 ug/ml by disk diffusion method; format: functional, organism-based
SMMC-7721 = experiment: Cytotoxicity against human SMMC7721 cells at 40 uM by MTT assay; format: functional, cell-based
HL-60 = experiment: Cytotoxicity against human HL60 cells at 40 uM by MTT assay; format: functional, cell-based
Panagrellus redivivus = experiment: Antinematodal activity against Panagrellus redivivus at 100 ug/ml by disk diffusion method; format: functional, organism-based

C=C1[C@H](O)[C@@H]2[C@H]3[C@H](CC[C@]2(C)O)[C@@H](C)CC(=O)[C@@]13O
inactive: inhibition (Staphylococcus aureus) | inhibition (Escherichia coli) | Activity (A549) | inhibition (Candida albicans) | Activity (SMMC-7721) | Activity (HL-60) | Activity (Panagrellus redivivus)

C=C1[C@@H](O)[C@@H]2[C@H]3[C@H](CC[C@@]2(C)O)[C@@H](C)CC(=O)[C@@]13O
inactive: inhibition (Staphylococcus aureus) | inhibition (Escherichia coli) | Activity (A549) | inhibition (Candida albicans) | Activity (SMMC-7721) | Activity (HL-60) | Activity (Panagrellus redivivus)

C=C1[C@H](O)[C@@H]2[C@H]3[C@H](CC[C@]2(C)O)[C@@H](C)C[C@H](O)[C@@]13O
inactive: inhibition (Staphylococcus aureus) | inhibition (Escherichia coli) | Activity (A549) | inhibition (Candida albicans) | Activity (SMMC-7721) | Activity (HL-60) | Activity (Panagrellus redivivus)
